Results: US9963448B2, “Bicyclic inhibitors of PAD4” (Padlock Therapeutics, Inc., priority 2015, dated 2018)
pIC50: −log10 of the molar value. Counter-ions that a name gives are not always drawn. Like-named read-outs stand apart in the source and are kept apart here.

Experiments:
hPAD4 = hPAD4 (Homo sapiens, UniProt Q9UM07); assay: hPAD4 RFMS (RapidFire mass spectrometry) PAD4 inhibition assay; assay type: biochemical; conditions: hPAD4 enzyme, RFMS readout; for IC50 / hPAD4 RFMS pIC50: pIC50=−log(IC50); for IC50: read-out: hPAD4 RFMS pIC50 (converted); for pIC50: read-out: hPAD4 RFMS IC50;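 for hPAD4 RFMS pIC50: grade E means pIC50 at most 4 and F means pIC50 4.0 to 5.0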
hPAD4, sequence (Q9UM07 whole entry): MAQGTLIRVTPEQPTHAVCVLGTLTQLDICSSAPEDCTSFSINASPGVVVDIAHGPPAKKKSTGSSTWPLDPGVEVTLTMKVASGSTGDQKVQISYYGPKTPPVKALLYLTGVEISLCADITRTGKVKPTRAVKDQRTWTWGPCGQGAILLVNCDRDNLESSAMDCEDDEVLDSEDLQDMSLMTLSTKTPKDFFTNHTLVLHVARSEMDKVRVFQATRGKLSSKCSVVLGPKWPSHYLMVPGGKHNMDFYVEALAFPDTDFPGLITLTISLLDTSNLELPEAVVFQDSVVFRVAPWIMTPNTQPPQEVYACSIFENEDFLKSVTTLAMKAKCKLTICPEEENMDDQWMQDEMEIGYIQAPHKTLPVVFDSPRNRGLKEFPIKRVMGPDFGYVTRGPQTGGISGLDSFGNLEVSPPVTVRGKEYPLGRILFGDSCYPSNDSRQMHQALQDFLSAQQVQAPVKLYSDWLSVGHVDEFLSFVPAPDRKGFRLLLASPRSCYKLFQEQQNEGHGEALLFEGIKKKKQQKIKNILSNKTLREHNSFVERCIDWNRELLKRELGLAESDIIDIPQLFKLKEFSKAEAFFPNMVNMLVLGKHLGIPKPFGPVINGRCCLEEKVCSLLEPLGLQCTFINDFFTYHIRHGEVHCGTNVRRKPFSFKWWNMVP
Experimental: (§1) Compounds of the present invention were assayed as inhibitors of PAD4 using the assay protocol described below.
(§2) Compound stock solutions were stored at RT. […] Final assay conditions were as follows:
(§3) Total incubation time: 65 mins at 37° C.
(§4) Stop solution: 40 μl 5% TCA in ACN
(§5) The compound numbers correspond to the compound numbers in Table 1. […] The term pIC50=−log(IC50). […] “NA” stands for “not assayed.”

mPAD4 = mPAD4 (Mus musculus, UniProt Q9Z183); assay: mPAD4 RFMS PAD4 inhibition assay; assay type: biochemical; conditions: mPAD4, RFMS readout; for IC50 / mPAD4 RFMS pIC50: pIC50=−log(IC50); for IC50: read-out: mPAD4 RFMS pIC50 (converted); for pIC50: read-out: mPAD4 RFMS IC50;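 for mPAD4 RFMS pIC50: grade E means pIC50 at most 4 and F means pIC50 4.0 to 5.0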
mPAD4, sequence (Q9Z183 whole entry): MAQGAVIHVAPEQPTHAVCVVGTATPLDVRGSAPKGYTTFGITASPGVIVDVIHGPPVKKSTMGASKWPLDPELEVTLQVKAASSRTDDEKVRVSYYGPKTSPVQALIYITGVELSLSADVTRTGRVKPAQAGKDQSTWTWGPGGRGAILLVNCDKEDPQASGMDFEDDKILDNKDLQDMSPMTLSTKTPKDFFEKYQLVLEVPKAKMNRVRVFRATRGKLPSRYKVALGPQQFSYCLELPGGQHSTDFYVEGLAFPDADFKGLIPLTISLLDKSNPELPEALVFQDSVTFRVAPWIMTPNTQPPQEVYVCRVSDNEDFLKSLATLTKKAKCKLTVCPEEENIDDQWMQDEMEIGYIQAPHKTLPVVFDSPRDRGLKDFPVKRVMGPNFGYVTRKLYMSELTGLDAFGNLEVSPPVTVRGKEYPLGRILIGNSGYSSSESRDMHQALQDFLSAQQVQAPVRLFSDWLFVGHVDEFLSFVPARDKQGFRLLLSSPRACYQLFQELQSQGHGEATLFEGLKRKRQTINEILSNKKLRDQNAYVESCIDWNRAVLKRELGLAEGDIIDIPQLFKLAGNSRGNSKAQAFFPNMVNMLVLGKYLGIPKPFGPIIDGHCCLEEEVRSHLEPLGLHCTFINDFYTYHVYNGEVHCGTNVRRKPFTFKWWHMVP
Experimental: as §1, §2, §3, §4, §5

Compound	IC50 (hPAD4) [µM]	pIC50 (hPAD4)	IC50 (mPAD4) [µM]	pIC50 (mPAD4)	hPAD4 RFMS pIC50 (hPAD4)	mPAD4 RFMS pIC50 (mPAD4)
COc1cc(C(=O)N2CCC[C@@H](N)C2)cc2nc(-c3cc4cccnc4n3CC3CC3)n(CC3CC(C)(O)C3)c12 (stereo partly shown) [Compound I-114]	< 1	> 6.00	< 1	> 6.00	–	–
COc1cc(C(=O)N2CCC3OCCNC3C2)cc2nc(-c3cc4cccnc4n3CC3CC3)n(C)c12 (racemic) [Compound I-83]	1 to 10	5.30 to 6.00	1 to 10	5.30 to 6.00	–	–
CCn1c(-c2nc3cc(C(=O)N4CCC[C@@H](N)C4)cc(OC)c3n2C)cc2ccc(OC)nc21 [Compound I-135]	< 1	> 6.00	< 1	> 6.00	–	–
COc1cc(C(=O)N2C[C@H](N)CC[C@H]2CO)cc2nc(-c3cc4cccnc4n3CC3CC3)n(C)c12 (racemic) [Compound I-220, Rac-[(2R,5S)-5-amino-1-{2-[1-(cyclopropylmethyl)-1H-pyrrolo[2,3-b]pyridin-2-yl]-7-methoxy-1-methyl-1H-1,3-benzodiazole-5-carbonyl}piperidin-2-yl]methanol]	–	< 5.00	–	< 5.00	E/F	E/F
CCn1c(-c2nc3cc(C(=O)N4C[C@H]5CC[C@@H]4[C@@H]5N)cc(OC)c3n2C)cc2ccc(C)nc21 [Compound I-160]	< 1	> 6.00	< 1	> 6.00	–	–
COc1cc(C(=O)N2C[C@H](N)CC[C@H]2C)cc2nc(-c3cc4cccnc4n3CC3CC3)n(C)c12 [Compound I-88]	10 to 100	< 5.00	1 to 10	5.00 to 5.30	–	–
COc1cc(C(=O)N2CC[C@@H](F)[C@@H](N)C2)cc2nc(-c3cc4cccnc4n3CC3CC3)n(C)c12 [Compound I-91]	< 1	> 6.00	< 1	> 6.00	–	–
CN[C@@H]1[C@@H]2CC[C@H]1N(C(=O)c1cc(OC)c3c(c1)nc(-c1cc4cccnc4n1CC1CC1)n3C)C2 [Compound I-237, (1R,4R,7R)-2-{2-[1-(Cyclopropylmethyl)-1H-pyrrolo[2,3-b]pyridin-2-yl]-7-methoxy-1-methyl-1H-1,3-benzodiazole-5-carbonyl}-N-methyl-2-azabicyclo[2.2.1]heptan-7-amine]	10 to 100	< 5.00	10 to 100	< 5.00	–	–
COc1cc(C(=O)N2C[C@H]3COC[C@@]3(CN)C2)cc2nc(-c3cc4cccnc4n3CC3CC3)n(C)c12 [Compound I-125]	10 to 100	< 5.00	10 to 100	< 5.00	–	–
COc1cc(C(=O)N2C[C@@H](N)C[C@H](O)C2)cc2nc(-c3cc4cccnc4n3CC3CC3)n(C)c12 (racemic) [Compound I-80]	1 to 10	5.00 to 5.30	1 to 10	5.30 to 6.00	–	–
Cn1c(-c2cc3cccnc3n2CC2CC2)nc2cc(C(=O)N3C[C@H]4CC[C@@H]3[C@@H]4N)cc(F)c21 [Compound I-191]	< 1	> 6.00	1 to 10	5.30 to 6.00	–	–
COc1cc(C(=O)N2C[C@H]3CC4OC(=O)N[C@H]3[C@@H]42)cc2nc(-c3cc4cccnc4n3CC3CC3)n(C)c12 [Compound I-187, (1S,2R,8R)-10-{2-[1-(Cyclopropylmethyl)-1H-pyrrolo[2,3-b]pyridin-2-yl]-7-methoxy-1-methyl-1H-1,3-benzodiazole-5-carbonyl}-5-oxa-3,10-diazatricyclo[4.4.0.0^2,8]decan-4-one]	10 to 100	< 5.00	10 to 100	< 5.00	–	–
COc1cc(C(=O)N2C[C@H](N)CC[C@H]2CO)cc2nc(-c3cc4cccnc4n3CC3CC3)n(C)c12 (single isomer, unassigned) [Compound I-226]	–	< 5.00	–	< 5.00	E/F	E/F
Cn1c(-c2cc3cccnc3n2CC2CC2)nc2cc(C(=O)N3CC[C@H]4CCN[C@H]4C3)cc(OC(F)F)c21 (single isomer, unassigned) [Compound I-24, hydrochloride]	10 to 100	< 5.00	10 to 100	< 5.00	–	–
COc1ccc2cc(-c3nc4cc(C(=O)N5CCC[C@@H](N)C5)cc(OC)c4n3C)n(CC3CC3)c2n1 [Compound I-33, (3R)-1-{2-[1-(cyclopropylmethyl)-6-methoxy-1H-pyrrolo[2,3-b]pyridin-2-yl]-7-methoxy-1-methyl-1H-1,3-benzodiazole-5-carbonyl}piperidin-3-amine]	< 1	> 6.00	< 1	> 6.00	–	–
CCn1c(-c2nc3cc(C(=O)N4C[C@H]5CC[C@@H]4[C@@H]5N)cc(OC)c3n2C)cc2ccc(C(F)(F)F)nc21 [Compound I-183]	< 1	> 6.00	< 1	> 6.00	–	–
CO[C@@H]1CCN(C(=O)c2cc(OC(F)F)c3c(c2)nc(-c2cc4cccnc4n2CC2CC2)n3C)C[C@@H]1N [Compound I-124]	10 to 100	< 5.00	1 to 10	5.00 to 5.30	–	–
COc1cc(C(=O)N2C[C@@H](N)CC[C@H]2C)cc2nc(-c3cc4cccnc4n3CC3CC3)n(C)c12 [Compound I-36]	< 1	> 6.00	< 1	> 6.00	–	–
COc1cc(C(=O)N2CC3CCC2[C@H]3N)cc2nc(-c3cc4cccnc4n3CC3CC3)n(C)c12 (stereo partly shown) [Compound I-31]	< 1	> 6.00	< 1	> 6.00	–	–
COc1cc(C(=O)N2CC[C@H](OC)[C@H](N)C2)cc2nc(-c3cc4cccnc4n3CC3CC3)n(C)c12 [Compound I-142]	1 to 10	5.30 to 6.00	1 to 10	5.30 to 6.00	–	–
COc1cc(C(=O)N2CC(O)(C3CCCCN3)C2)cc2nc(-c3cc4cccnc4n3CC3CC3)n(C)c12 (racemic) [Compound I-74]	10 to 100	< 5.00	10 to 100	< 5.00	–	–
CO[C@]1(C)C[C@H](Cn2c(-c3cc4cccnc4n3CC3CC3)nc3cc(C(=O)N4C[C@H]5CC[C@@H]4[C@@H]5N)cc(F)c32)C1 [Compound I-223]	< 1	> 6.00	< 1	> 6.00	–	–
Cn1c(-c2cc3cccnc3n2CC2CC2)nc2cc(C(=O)N3CCC[C@@H](N)C3)cc(C(N)=O)c21 [Compound I-112, 5-[(3R)-3-aminopiperidine-1-carbonyl]-2-[1-(cyclopropylmethyl)-1H-pyrrolo[2,3-b]pyridin-2-yl]-1-methyl-1H-1,3-benzodiazole-7-carboxamide hydrochloride]	1 to 10	5.00 to 5.30	1 to 10	5.30 to 6.00	–	–
CCn1c(-c2nc3cc(C(=O)N4C[C@H]5CC[C@@H]4[C@@H]5N)ccc3n2CCOC)cc2cccnc21 [Compound I-186]	1 to 10	5.30 to 6.00	10 to 100	< 5.00	–	–
CCn1c(-c2nc3cc(C(=O)N4CCC[C@@H](N)C4)cc(F)c3n2C)cc2cccnc21 [Compound I-164]	1 to 10	5.30 to 6.00	1 to 10	5.00 to 5.30	–	–
COCCn1c(-c2nc3cc(C(=O)N4C[C@H]5CC[C@@H]4[C@@H]5N)ccc3n2C)cc2ccc(OC)nc21 [Compound I-192]	< 1	> 6.00	1 to 10	5.00 to 5.30	–	–
CCn1c(-c2nc3cc(C(=O)N4C[C@@H](N)CC[C@H]4C)cc(OC)c3n2C)cc2cccnc21 [Compound I-138]	< 1	> 6.00	< 1	> 6.00	–	–
COc1cc(C(=O)N2CCC[C@@H](N)C2)cc2nc(-c3cc4ccc(C(C)(C)O)nc4n3CC3CC3)n(C)c12 [Compound I-211]	< 1	> 6.00	< 1	> 6.00	–	–
